Test results published in ChEMBL document CHEMBL1157898 (Bioorg Med Chem Lett, 2010).
Activity calls are given as the source filed them. No cut-off for these calls is given here.

How the values were obtained:
[1] = biological target: Receptor-type tyrosine-protein kinase FLT3 (Homo sapiens) (UniProt P36888); experiment: Inhibition of FLT3
[2] = biological target: MAP kinase-activated protein kinase 2 (Homo sapiens) (UniProt P49137); experiment: Inhibition of MAPKAPK2
[3] = biological target: T1, Interleukin-1 receptor-associated kinase 4 (Homo sapiens) (UniProt Q9NWZ3); experiment: Inhibition of IRAK4 at 5 uM
T1 sequence (whole entry): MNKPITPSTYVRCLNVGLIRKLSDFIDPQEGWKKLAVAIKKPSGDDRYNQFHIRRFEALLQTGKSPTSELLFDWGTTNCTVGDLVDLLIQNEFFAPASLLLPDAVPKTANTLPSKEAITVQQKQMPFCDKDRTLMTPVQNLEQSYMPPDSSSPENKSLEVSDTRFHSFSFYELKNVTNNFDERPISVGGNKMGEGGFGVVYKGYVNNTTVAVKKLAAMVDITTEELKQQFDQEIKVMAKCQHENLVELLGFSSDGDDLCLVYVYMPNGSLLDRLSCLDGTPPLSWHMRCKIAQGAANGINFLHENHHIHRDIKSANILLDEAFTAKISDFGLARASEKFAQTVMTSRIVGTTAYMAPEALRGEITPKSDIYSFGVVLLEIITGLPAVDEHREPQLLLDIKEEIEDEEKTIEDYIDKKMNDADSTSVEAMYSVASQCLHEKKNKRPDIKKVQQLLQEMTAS

[4] = biological target: T2, MAP kinase-activated protein kinase 5 (Homo sapiens) (UniProt Q8IW41); experiment: Inhibition of PRAK
T2 sequence (whole entry): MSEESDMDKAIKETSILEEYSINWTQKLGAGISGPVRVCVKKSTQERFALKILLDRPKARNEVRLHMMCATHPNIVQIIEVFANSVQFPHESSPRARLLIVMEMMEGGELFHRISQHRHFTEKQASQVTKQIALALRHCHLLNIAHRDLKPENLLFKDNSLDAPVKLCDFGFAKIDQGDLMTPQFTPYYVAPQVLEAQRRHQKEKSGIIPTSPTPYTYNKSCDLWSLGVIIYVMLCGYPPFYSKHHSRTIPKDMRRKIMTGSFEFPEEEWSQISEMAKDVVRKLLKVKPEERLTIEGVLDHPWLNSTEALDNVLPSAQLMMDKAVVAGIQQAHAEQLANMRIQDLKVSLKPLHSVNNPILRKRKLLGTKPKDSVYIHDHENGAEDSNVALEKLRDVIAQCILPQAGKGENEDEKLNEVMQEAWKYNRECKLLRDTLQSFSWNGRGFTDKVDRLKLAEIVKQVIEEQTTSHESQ

[5] = biological target: T3, Serine/threonine-protein kinase Sgk1 (Homo sapiens) (UniProt O00141); experiment: Inhibition of SGK1
T3 sequence (whole entry): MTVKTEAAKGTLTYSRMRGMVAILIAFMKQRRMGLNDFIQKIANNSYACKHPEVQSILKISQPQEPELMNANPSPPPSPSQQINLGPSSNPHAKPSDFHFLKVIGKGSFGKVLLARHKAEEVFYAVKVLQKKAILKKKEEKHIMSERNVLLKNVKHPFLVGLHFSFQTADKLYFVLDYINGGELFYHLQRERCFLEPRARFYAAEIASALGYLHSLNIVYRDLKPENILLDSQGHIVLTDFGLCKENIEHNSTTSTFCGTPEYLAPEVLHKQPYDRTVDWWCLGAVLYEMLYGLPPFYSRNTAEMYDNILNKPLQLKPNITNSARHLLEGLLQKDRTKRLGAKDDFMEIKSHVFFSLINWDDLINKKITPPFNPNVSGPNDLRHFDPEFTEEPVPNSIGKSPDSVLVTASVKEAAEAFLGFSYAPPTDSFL

[6] = biological target: Hepatocyte growth factor receptor (Homo sapiens) (UniProt P08581); experiment: Inhibition of MET
[7] = biological target: Serine/threonine-protein kinase PAK 2 (Homo sapiens) (UniProt Q13177); experiment: Inhibition of PAK2
[8] = biological target: T4, Gamma-secretase (Homo sapiens) (UniProt Q96BI3+Q9NZ42+Q8WW43+P49768+Q92542+P49810); experiment: Inhibition of gamma secretase mediated amyloid beta 38 generation in human H4 cells at 10 uM by LPECL assay; values are per cent of control
[9] = biological target: Ribosomal protein S6 kinase alpha-1 (Homo sapiens) (UniProt Q15418); experiment: Inhibition of RSK1
[10] = biological target: Insulin-like growth factor 1 receptor (Homo sapiens) (UniProt P08069); experiment: Inhibition of IGF1R
[11] = biological target: Serine/threonine-protein kinase pim-2 (Homo sapiens) (UniProt Q9P1W9); experiment: Inhibition of PIM2
[12] = biological target: Glycogen synthase kinase-3 beta (Homo sapiens) (UniProt P49841); experiment: Inhibition of GSK3-beta
[13] = biological target: Tyrosine-protein kinase Fyn (Homo sapiens) (UniProt P06241); experiment: Inhibition of FYN
[14] = biological target: Ribosomal protein S6 kinase alpha-5 (Homo sapiens) (UniProt O75582); experiment: Inhibition of MSK1
[15] = biological target: T4, Gamma-secretase (Homo sapiens); experiment: Inhibition of gamma secretase mediated amyloid beta 42 generation in human H4 cells at 10 uM by LPECL assay; values are per cent of control
[16] = biological target: Mitogen-activated protein kinase kinase kinase kinase 4 (Homo sapiens) (UniProt O95819); experiment: Inhibition of HGK
[17] = biological target: T4, Gamma-secretase (Homo sapiens); experiment: Inhibition of gamma secretase mediated amyloid beta 40 generation in human H4 cells at 10 uM by LPECL assay; values are per cent of control
[18] = biological target: T5, Protein kinase C zeta type (Homo sapiens) (UniProt Q05513); experiment: Inhibition of PKCzeta
T5 sequence (whole entry): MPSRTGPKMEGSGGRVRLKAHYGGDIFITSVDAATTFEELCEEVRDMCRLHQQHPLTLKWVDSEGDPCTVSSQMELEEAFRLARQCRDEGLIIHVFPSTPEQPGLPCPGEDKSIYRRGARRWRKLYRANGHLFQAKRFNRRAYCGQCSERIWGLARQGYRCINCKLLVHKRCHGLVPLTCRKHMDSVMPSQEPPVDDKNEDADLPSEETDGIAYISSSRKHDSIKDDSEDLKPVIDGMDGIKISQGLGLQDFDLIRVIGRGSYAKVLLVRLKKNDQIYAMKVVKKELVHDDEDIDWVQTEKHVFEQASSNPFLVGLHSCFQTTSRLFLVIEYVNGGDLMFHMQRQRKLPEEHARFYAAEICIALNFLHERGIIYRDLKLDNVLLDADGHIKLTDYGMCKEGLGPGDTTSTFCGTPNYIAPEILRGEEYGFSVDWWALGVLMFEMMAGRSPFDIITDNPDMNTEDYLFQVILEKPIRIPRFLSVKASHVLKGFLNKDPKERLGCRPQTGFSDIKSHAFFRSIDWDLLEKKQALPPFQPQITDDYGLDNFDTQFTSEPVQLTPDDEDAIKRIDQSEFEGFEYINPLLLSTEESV

Sequence of MAP kinase-activated protein kinase 2 (Homo sapiens) (P49137 whole entry, looked up): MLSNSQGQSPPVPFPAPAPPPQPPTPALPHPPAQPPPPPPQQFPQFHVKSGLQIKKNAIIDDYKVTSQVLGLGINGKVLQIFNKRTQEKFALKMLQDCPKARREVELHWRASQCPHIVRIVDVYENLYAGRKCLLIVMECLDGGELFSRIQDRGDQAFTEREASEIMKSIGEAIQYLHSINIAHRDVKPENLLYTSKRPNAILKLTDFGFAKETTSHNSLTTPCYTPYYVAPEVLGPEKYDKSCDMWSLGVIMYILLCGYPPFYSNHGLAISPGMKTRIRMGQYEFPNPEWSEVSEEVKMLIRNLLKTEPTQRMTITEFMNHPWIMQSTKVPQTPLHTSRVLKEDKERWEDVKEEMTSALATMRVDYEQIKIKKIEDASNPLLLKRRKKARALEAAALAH
Sequence of Hepatocyte growth factor receptor (Homo sapiens) (P08581 whole entry): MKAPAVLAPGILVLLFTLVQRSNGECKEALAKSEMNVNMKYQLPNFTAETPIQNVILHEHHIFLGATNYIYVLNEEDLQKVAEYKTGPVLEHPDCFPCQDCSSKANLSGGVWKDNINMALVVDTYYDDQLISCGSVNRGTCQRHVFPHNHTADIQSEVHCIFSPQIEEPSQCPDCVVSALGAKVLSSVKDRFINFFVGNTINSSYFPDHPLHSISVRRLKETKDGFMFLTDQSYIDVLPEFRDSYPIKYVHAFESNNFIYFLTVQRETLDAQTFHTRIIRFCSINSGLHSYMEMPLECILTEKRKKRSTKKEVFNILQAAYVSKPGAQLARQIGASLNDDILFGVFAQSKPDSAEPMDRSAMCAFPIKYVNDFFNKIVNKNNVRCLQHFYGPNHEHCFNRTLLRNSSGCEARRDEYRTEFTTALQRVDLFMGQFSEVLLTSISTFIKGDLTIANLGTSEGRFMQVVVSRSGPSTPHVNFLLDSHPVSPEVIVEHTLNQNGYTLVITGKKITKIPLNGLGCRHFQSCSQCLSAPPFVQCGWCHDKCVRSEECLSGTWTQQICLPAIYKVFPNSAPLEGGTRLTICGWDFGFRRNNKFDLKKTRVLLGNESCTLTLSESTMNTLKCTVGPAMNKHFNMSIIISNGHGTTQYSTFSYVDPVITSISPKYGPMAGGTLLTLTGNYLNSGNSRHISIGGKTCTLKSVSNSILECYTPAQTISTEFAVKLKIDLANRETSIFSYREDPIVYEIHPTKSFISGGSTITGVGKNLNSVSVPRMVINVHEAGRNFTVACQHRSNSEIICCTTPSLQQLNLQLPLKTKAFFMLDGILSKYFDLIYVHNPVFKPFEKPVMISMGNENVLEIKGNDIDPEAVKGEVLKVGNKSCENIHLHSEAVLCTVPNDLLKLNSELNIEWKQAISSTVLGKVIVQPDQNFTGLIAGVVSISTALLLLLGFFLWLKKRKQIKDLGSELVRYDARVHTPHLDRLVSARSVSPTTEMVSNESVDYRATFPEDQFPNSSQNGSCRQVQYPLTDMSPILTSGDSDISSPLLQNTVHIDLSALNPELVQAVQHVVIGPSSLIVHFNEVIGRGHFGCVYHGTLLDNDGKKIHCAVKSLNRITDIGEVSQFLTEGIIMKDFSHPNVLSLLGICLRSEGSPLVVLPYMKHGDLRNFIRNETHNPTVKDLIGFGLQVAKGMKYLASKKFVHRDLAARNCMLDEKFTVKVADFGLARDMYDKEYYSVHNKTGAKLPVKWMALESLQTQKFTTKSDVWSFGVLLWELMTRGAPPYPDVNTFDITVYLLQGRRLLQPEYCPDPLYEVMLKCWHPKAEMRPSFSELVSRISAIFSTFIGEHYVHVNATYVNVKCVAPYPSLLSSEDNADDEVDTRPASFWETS
Sequence of Ribosomal protein S6 kinase alpha-1 (Homo sapiens) (Q15418 whole entry): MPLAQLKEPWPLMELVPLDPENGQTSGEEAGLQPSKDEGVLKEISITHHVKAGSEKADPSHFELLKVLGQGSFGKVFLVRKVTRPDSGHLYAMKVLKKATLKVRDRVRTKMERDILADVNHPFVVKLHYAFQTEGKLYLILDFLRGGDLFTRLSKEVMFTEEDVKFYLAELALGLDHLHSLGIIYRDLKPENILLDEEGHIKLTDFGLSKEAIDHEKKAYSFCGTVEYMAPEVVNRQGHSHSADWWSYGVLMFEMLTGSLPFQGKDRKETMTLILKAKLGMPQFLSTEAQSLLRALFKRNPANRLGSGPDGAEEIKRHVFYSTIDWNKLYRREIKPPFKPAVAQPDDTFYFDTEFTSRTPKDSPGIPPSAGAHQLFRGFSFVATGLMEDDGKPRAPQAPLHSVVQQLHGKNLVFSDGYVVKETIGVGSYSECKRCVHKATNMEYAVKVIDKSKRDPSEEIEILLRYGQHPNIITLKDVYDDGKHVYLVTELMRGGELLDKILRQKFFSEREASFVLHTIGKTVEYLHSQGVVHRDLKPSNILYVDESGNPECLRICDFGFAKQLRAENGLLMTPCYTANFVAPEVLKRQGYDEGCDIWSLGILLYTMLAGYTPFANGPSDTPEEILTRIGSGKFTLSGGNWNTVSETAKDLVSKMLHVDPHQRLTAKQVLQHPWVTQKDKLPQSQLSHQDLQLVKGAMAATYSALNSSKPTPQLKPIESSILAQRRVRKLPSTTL
Sequence of Mitogen-activated protein kinase kinase kinase kinase 4 (Homo sapiens) (O95819 2-1239 limits assumed): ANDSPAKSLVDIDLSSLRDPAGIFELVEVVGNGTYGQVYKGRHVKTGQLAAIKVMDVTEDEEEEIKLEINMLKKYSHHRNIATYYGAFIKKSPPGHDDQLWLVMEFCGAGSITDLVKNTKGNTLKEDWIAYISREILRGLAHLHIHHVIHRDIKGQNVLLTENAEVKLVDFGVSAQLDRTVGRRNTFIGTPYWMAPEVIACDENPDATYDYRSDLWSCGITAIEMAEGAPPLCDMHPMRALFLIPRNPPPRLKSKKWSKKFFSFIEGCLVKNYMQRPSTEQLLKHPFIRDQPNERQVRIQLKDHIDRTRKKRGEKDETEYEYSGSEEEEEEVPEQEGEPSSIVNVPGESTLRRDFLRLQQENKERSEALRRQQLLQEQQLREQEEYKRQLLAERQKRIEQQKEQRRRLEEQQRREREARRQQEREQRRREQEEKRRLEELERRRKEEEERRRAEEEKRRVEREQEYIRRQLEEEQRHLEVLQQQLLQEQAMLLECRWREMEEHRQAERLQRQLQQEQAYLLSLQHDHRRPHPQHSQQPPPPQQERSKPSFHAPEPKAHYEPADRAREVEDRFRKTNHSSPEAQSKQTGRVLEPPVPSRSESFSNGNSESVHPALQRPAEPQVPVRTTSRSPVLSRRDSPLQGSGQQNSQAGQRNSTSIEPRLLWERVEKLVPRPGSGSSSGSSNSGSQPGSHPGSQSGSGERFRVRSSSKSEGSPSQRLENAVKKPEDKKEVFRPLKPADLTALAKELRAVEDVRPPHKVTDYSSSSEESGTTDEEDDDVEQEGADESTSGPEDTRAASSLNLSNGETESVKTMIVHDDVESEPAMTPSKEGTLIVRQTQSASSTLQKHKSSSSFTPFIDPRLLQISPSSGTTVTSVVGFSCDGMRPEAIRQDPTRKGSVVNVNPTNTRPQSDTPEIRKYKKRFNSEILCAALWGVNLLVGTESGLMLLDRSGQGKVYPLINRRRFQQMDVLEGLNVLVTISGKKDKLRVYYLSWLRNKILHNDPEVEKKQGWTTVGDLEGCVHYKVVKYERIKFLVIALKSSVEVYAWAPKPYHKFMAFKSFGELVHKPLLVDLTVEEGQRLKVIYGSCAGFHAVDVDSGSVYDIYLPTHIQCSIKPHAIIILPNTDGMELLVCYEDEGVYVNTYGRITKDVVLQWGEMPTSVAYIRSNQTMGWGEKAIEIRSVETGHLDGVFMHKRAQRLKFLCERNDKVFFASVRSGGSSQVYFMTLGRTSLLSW
Sequence of Ribosomal protein S6 kinase alpha-5 (Homo sapiens) (O75582 whole entry, looked up): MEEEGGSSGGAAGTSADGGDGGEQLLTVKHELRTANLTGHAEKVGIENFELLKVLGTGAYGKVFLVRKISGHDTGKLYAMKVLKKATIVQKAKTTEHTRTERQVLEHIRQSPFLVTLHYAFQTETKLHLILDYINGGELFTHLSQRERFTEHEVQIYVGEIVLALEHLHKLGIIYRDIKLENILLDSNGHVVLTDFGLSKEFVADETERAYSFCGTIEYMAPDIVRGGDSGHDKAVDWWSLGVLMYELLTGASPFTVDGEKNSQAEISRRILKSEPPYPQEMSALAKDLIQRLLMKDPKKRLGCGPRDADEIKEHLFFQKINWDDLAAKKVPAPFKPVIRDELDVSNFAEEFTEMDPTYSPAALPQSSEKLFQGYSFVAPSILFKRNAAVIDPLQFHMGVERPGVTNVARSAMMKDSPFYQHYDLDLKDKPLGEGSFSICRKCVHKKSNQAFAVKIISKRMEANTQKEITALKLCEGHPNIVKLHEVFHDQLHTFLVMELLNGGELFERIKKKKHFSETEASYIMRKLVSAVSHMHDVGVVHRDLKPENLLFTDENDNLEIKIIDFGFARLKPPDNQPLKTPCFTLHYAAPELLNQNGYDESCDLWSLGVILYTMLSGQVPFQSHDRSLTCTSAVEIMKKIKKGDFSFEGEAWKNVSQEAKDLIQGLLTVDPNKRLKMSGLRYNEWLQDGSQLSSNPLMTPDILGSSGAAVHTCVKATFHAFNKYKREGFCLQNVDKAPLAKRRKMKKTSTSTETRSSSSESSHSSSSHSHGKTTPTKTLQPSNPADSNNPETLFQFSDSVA
Sequence of Serine/threonine-protein kinase PAK 2 (Homo sapiens) (Q13177 whole entry): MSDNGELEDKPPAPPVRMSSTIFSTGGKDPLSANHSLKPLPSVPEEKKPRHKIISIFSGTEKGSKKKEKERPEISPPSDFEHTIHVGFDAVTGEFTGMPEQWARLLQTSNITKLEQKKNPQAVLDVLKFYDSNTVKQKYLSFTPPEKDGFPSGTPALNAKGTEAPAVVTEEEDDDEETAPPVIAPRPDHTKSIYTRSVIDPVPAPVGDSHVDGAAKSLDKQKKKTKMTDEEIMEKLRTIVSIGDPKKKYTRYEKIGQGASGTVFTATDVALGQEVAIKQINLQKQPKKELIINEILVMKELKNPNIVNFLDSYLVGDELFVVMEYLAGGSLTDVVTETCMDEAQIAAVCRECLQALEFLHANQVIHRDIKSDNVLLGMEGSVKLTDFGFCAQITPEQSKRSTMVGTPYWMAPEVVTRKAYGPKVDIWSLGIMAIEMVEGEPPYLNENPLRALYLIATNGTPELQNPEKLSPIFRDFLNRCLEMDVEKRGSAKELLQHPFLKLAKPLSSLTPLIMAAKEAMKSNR

inhibition [1] | inhibition [2] | inhibition [3] | inhibition [4] | inhibition [5] | inhibition [6] | inhibition [7] | residual activity [8] | inhibition [9] | inhibition [10] | inhibition [11] | inhibition [12] | inhibition [13] | inhibition [14] | residual activity [15] | inhibition [16] | residual activity [17] | inhibition [18] | inhibition ([1]; concentration not given here) | Structure (SMILES)
inactive | inactive | inactive | inactive | inactive | inactive | inactive | 101% | inactive | inactive | inactive | inactive | inactive | inactive | 88% | inactive | 96% | inactive |  | O=C1Nc2ccc(Cl)cc2/C1=C\c1ccccc1S(=O)(=O)O
 | inactive | inactive | inactive | inactive | inactive | inactive | 27% | inactive | inactive | inactive | inactive | inactive | inactive | 47% | inactive | 46% | inactive | 89% | COc1ccc(/C=C2/C(=O)Nc3ccc(Cl)cc32)c(OC)c1OC
inactive | inactive | inactive | inactive | inactive | inactive | inactive | 54% | inactive | inactive | inactive | inactive | inactive | inactive | 65% | inactive | 72% | inactive |  | COc1cc(/C=C2/C(=O)Nc3ccc(Cl)cc32)cc(OC)c1OC
inactive | inactive | inactive | inactive | inactive | inactive | inactive | 86% | inactive | inactive | inactive | inactive | inactive | inactive | 90% | inactive | 93% | inactive |  | O=C1Nc2ccc(Cl)cc2/C1=C\c1ccc2c(c1)OCO2
inactive | inactive | inactive | inactive | inactive | inactive | inactive | 87% | inactive | inactive | inactive | inactive | inactive | inactive | 91% | inactive | 88% | inactive |  | O=C1Nc2ccc(Cl)cc2/C1=C\c1ccccc1F
inactive | inactive | inactive | inactive | inactive | inactive | inactive | 26% | inactive | inactive | inactive | inactive | inactive | inactive | 26% | inactive | 53% | inactive |  | CCN(CC)CCNC(=O)c1c(C)[nH]c(/C=C2\C(=O)Nc3ccc(F)cc32)c1C [SUNITINIB]
inactive | inactive | inactive | inactive | inactive | inactive | inactive |  | inactive | inactive | inactive | inactive | inactive | inactive |  | inactive |  | inactive |  | O=C1Nc2ccc(Cl)cc2/C1=C\c1cc(F)cc(F)c1

Structure (SMILES) | inhibition [1] | inhibition [2] | inhibition [3] | inhibition [4] | inhibition [5] | inhibition [6] | inhibition [7] | residual activity [8] | inhibition [9] | inhibition [10] | inhibition [11] | inhibition [12] | inhibition [13] | inhibition [14] | residual activity [15] | inhibition [16] | residual activity [17] | inhibition [18] | inhibition ([1]; concentration not given here)
COc1cc(OC)c(C=C2C(=O)Nc3ccccc32)c(OC)c1 | inactive | inactive | inactive | inactive | inactive | inactive | inactive | 55% | inactive | inactive | inactive | inactive | inactive | inactive | 77% | inactive | 77% | inactive | 
